{"source": "patent US20120040965A1", "about": "“SUBSTITUTED AZEPINO[4,3-B]INDOLES, PHARMACOLOGICAL COMPOSITION AND A METHOD FOR THE PRODUCTION AND USE THEREOF” (priority 2006, published 2012)", "key": {"[1]": {"test_system": "male mice of C57BL/6 line", "assay": "Test of familiar object recognition in a novel localization (spatial memory)", "format": "in vivo", "conditions": "for % of time investigating the object in a novel localization / % of time investigating the object in familiar localization: testing 48 hr after training; for effect on memory: doses of 1 mg/kg and 5 mg/kg", "excerpt": "Testing of compounds of general formula 1 on spatial memory in test of novel object recognition. Test of novel object recognition is based on the fact that rats and mice investigate spontaneously a novel object or novel object localization (NL) for longer period of time than the known object or known object localization (KL). The test was tried on rats [A. Ennaceur and J. Delacour, A new one-trial test for neurobiological studies of memory in rats. 1: behavioral data. Behay. Brain Res. 1988, 31, 47-59; J. C. Dodart, C. Mathis and A. Ungerer, Scopolamine-induced deficits in a two-trial object recognition task in mice. NeuroReport 1997, 8, 1173-1178; C. Messier, Object recognition in mice: improvement of memory by glucose. Neurobiol. Learn. Mem. 1997, 67, 172-175; C. Pittenger, Y. Y. Huang, R. F. Paletzki, R. Bourtchouladze, H. Scanlin, S. Vronskaya et al., Reversible inhibition of CREB/ATF transcription factors in region CA1 of the dorsal hippocampus disrupts hippocampus-dependent spatial memory. Neuron 2002, 34, 447-462; A. E. Ryabinin, M. N. Miller and S. Durrant, Effects of acute alcohol administration on object recognition learning in C57BL/6J mice. Pharmacol. Biochem. Behay. 2002, 71, 307-312; F. Sargolini, P. Roullet, A. Oliverio and A. Mele, Effects of intra-accumbens focal administrations of glutamate antagonists on object recognition memory in mice. Behay. Brain Res. 2003, 138, 153-163].\nTest of novel object recognition consists of two tests. The first one is novel object localization test use for examination of spatial memory, and the second one—test of novel object recognition for exploring non spatial memory [D. Gaffan, Amnesia for complex naturalistic scenes and for objects following formix transaction in the Rhesus monkey. Eur. J. Neurosci. 1992, 4, 381-388; B. Kolb, K. Buhrmann, R. McDonald and R. Sutherland, Dissociation of the medial prefrontal, posterior parietal, and posterior temporal cortex, for spatial navigation and recognition memory in the rat. Cereb. Cortex 1994, 6, 664-680; T. Steckler, W. H. I. M. Drinkenburgh, A. Sahgal and J. P. Aggleton, Recognition memory in rats. I. Concepts and classification. Prog. Neurobiol. 1998, 54, 289-311. T. Steckler, W. H. I. M. Drinkenburgh, A. Sahgal and J. P. Aggleton, Recognition memory in rats II. Neuroanatomical substrates. Prog. Neurobiol. 1998, 54, 313-332].\nMethods of Investigation.\nSubjects were male mice of 3-5 month age of C57BL/6 line, weighing 20-24 g. Animals were housed 5 per cage at light mode 12×12 hr with a light part from 8 till 20 o'clock with water and food available. Experimental setup was made of non-transparent white organic glass measuring 48×38×30 cm. As objects of recognition brown glass bottles measuring 2.7 cm diameter and 5.5 cm high were used. The cage and objects of recognition were wiped with 85% alcohol 2-3 min prior placing an animal in the cage. Animals were always placed in the cage centre. 40 Mg of compound of general formula 1 were dissolved in 0.2 ml of DMSO with the following addition of distilled water up to desired concentration. Solutions were prepared just before a trial. All experiments were carried out on two groups of 10 mice each. Animals were injected in dose 1 and 5 mg/kg in volume 0.05 ml on 10 g of animal weight one hour before the trial. The control animals were injected with an equal volume of distilled water.\nAcquaintance with the behavioural cage. At the first test day mice were placed into a research chamber and allowed to acclimate for 20-30 min. After that each animal was placed for 10 minutes into an empty, previously treated with alcohol behavioural chamber for acclimation. Then the animal was placed into the cage and taken back to vivarium.\nTraining. Next day the same mice were placed into a behavioural chamber and allowed to explore for 20-30 min; after acclimation animals were injected intragastrically by the solution of tested compound. […]"}, "[2]": {"test_system": "male mice of C57BL/6 line", "assay": "Acute toxicity in mice", "format": "in vivo", "conditions": "for animals' death: 100 mg/kg", "protocol": "Research of acute toxicity. Acute toxicity of the proposed compounds was determined in male mice of C57BL/6 line. […] Observation time was 14 days."}, "[3]": {"conditions": "dose 1 mg/kg intragastrically one hour before training"}, "[4]": {"conditions": "dose 5 mg/kg intragastrically one hour before training"}}}
{"smiles": "Cc1ccc2c(c1)c1c(n2CCc2ccc(C)nc2)CCCN(C)C1.Cl.Cl", "note": "[1.1.5(2)HCl, 2,9-dimethyl-6-[2-(6-methylpyridin-3-yl)ethyl]-1,2,3,4,5,6-hexahydroazepino[4,3-b]indole dihydrochloride]", "values": [{"measurement": "% of time investigating the object in a novel localization", "setting": "[1]; [3]", "result": "58.7±9.7", "unit": "%"}, {"measurement": "% of time investigating the object in familiar localization", "setting": "[1]; [3]", "result": "41.3±9.7", "unit": "%"}, {"measurement": "% of time investigating the object in a novel localization", "setting": "[1]; [4]", "result": "58.8±11.1", "unit": "%"}, {"measurement": "% of time investigating the object in familiar localization", "setting": "[1]; [4]", "result": "41.2±11.1", "unit": "%"}, {"measurement": "effect on memory", "setting": "[1]", "result": "stimulating effect on memory"}, {"measurement": "animals' death", "setting": "[2]; mouse, in vivo", "result": "do not cause animals' death"}]}
{"smiles": "Cc1ccc2c(c1)[C@@H]1CN(C)CCC[C@H]1N2Cc1ccccn1.Cl.Cl", "note": "(relative stereo) [1.2.6(4)HCl, trans-2,9-dimethyl-6-[(pyridin-2-yl)methyl]-1,2,3,4,5,5a,6,10b-octahydroazepino[4,3-b]indole dihydrochloride]", "values": [{"measurement": "% of time investigating the object in a novel localization", "setting": "[1]; [3]", "result": "49.11±3.3", "unit": "%"}, {"measurement": "% of time investigating the object in familiar localization", "setting": "[1]; [3]", "result": "41.3±9.7", "unit": "%"}, {"measurement": "% of time investigating the object in a novel localization", "setting": "[1]; [4]", "result": "60.1±9.0", "unit": "%"}, {"measurement": "% of time investigating the object in familiar localization", "setting": "[1]; [4]", "result": "39.9±9.0", "unit": "%"}, {"measurement": "effect on memory", "setting": "[1]", "result": "stimulating effect on memory"}, {"measurement": "duration of sedative action", "setting": "[2]; doses 100 and 50 mg/kg, mice", "result": "> 24", "unit": "h"}, {"measurement": "onset of sedative action after injection", "setting": "[2]; doses 100 and 50 mg/kg, mice", "result": "5 to 10", "unit": "min"}, {"measurement": "sedative action", "setting": "[2]; doses 100 and 50 mg/kg, mice", "result": "pronounced sedative action"}, {"measurement": "sedative action", "setting": "[2]; doses of 1 and 5 mg/kg, mice", "result": "not observed"}, {"measurement": "animals' death", "setting": "[2]; unitary introduction into stomach, 14 days of watching", "result": "do not cause animals' death"}]}
{"smiles": "Cc1ccc2c(c1)c1c(n2CCc2ccncc2)CCCN(C)C1.Cl.Cl", "note": "[1.1.5(3)HCl, 2,9-dimethyl-6-[2-(pyridin-4-yl)ethyl]-1,2,3,4,5,6-hexahydroazepino[4,3-b]indole dihydrochloride]", "values": [{"measurement": "% of time investigating the object in a novel localization", "setting": "[1]; [3]", "result": "55.5±6.2", "unit": "%"}, {"measurement": "% of time investigating the object in familiar localization", "setting": "[1]; [3]", "result": "44.5±6.2", "unit": "%"}, {"measurement": "% of time investigating the object in a novel localization", "setting": "[1]; [4]", "result": "59.9±5.9", "unit": "%"}, {"measurement": "% of time investigating the object in familiar localization", "setting": "[1]; [4]", "result": "40.1±5.9", "unit": "%"}, {"measurement": "effect on memory", "setting": "[1]", "result": "stimulating effect on memory"}, {"measurement": "animals' death", "setting": "[2]; mouse, in vivo", "result": "do not cause animals' death"}]}
